Assay results reported in ChEMBL document CHEMBL5113529, “Design, Synthesis, and Biological Evaluation of Dual-Target COX-2/CYP51 Inhibitors for the Treatment of Fungal Infectious Diseases” (J Med Chem, 2022).
The source made the active and inactive calls. No cut-off for these calls is given here.

What was measured:
[1] = organism: Mus musculus; test: Immunostimulatory activity in mouse infected with Candida albicans ATCC SC5314 assessed as reduction in PD-L1 expression in spleen in presence of naproxen by western blot analysis relative to control; type: functional; set-up: scale not given: the % may be the effect or the level left
[2] = test system: Candida albicans; test: Antifungal activity against fluconazole- resistant Candida albicans 632 assessed as fungal growth inhibition measured after 72 hrs in presence of naproxen by double dilution method; type: functional
[3] = organism: Mus musculus; test: Antiinflammatory activity in mouse infected with Candida albicans ATCC SC5314 assessed as reduction in COX-2 expression in spleen in presence of naproxen by hematoxylin staining based inverted microscopic analysis; type: functional
[4] = test system: Pichia kudriavzevii; test: Antifungal activity against Candida krusei ATCC 6258 assessed as fungal growth inhibition measured after 72 hrs in presence of naproxen by double dilution method; type: functional
[5] = test system: Candida albicans; test: Antifungal activity against Candida albicans ATCC SC5314 assessed as fungal growth inhibition measured after 72 hrs in presence of naproxen by double dilution method; type: functional
[6] = Toxicity in Candida albicans ATCC SC5314 infected-mouse assessed as effect on body weight at 10 ug per 20 g, ip administered on day 2, 4, 6, 8, 10 and 12 and measured on day 14 in presence of naproxen; type: organism-based; details: in vivo, 336 h, dose 10 µg, time 14 day
[7] = Toxicity in mouse infected with Candida albicans assessed as ALT level in plasma at 10 ug per 20 g, ip administered on day 2, 4, 6, 8, 10 and 12 and measured on day 14 in presence of naproxen (reference value: 43.6 +/- 4.4 IU/L); type: organism-based; details: in vivo, 336 h, dose 10 µg, time 14 day
[8] = test system: Candida albicans; test: Antifungal activity against fluconazole- resistant Candida albicans 901 assessed as fungal growth inhibition measured after 72 hrs in presence of naproxen by double dilution method; type: functional
[9] = organism: Mus musculus; test: Immunostimulatory activity in mouse infected with Candida albicans ATCC SC5314 assessed as increase in CD3+ expression level in spleen in presence of naproxen by immunohistochemical analysis; type: functional, organism-based
[10] = organism: Mus musculus; test: Immunostimulatory activity in mouse infected with Candida albicans ATCC SC5314 assessed as increase in CD8+ expression level in spleen in presence of naproxen by immunohistochemical analysis; type: functional, organism-based
[11] = test system: Candida albicans; test: Induction of morphological changes in Candida albicans ATCC SC5314 assessed as edema cavitation measured for 48 to 72 hrs by transmission electron microscopic analysis; type: functional, organism-based; details: time 48-72 hrs
[12] = test system: Candida albicans; test: Induction of morphological changes in Candida albicans ATCC SC5314 assessed as ribosome abscission measured for 48 to 72 hrs by transmission electron microscopic analysis; type: functional, organism-based; details: time 48-72 hrs

## OC(Cn1cncn1)(Cn1cncn1)c1ccc(F)cc1F [FLUCONAZOLE]
[1]
  Activity: 14.27%
[2]
  MIC50: 4 µg/mL
[3]
  Activity: 55.7 a.u.
[4]
  MIC50: 1 µg/mL
[5]
  MIC50: 0.25 µg/mL
[6]
  Activity: Non-Toxic
[7]
  Activity: 42.6 IU/L
[8]
  MIC50: 4 µg/mL
[9]
  Activity: Active
[10]
  Activity: Active

## COc1ccc2cc([C@H](C)C(=O)NC(Cn3cncn3)C(=O)c3ccccc3)ccc2c1 (some centres not stated)
[11]
  Activity: Active
[12]
  Activity: Active
